# In article PMC4596572, “Ligand Discovery for the Alanine-Serine-Cysteine Transporter (ASCT2, SLC1A5) from Homology Modeling and Virtual Screening” (PLoS Computational Biology, 2015):
# Several values for one entry are separate records, joined by “and”; a condition that tells them apart may be missing. Identical values can stand only once.
# Key:
# rat ASCT2 = target: T1, rat ASCT2 (Rattus norvegicus, UniProt D3ZJ25); test: Whole-cell patch-clamp recording of ASCT2-associated anion current in transfected HEK293 cells; type: cell-based; conditions: for Km: apparent Km for the active compounds from anion current dose response, called Ki in text for the inhibitors L-DOPS and γ-FBP; for Imax, maximum currents relative to 1 mM alanine: whole-cell anion current, membrane potential 0 mV, internal 130 mM NaSCN and 10 mM alanine, negative = outward current (inhibitor); for Anion current response / ligand character: whole-cell current, result in words; for Anion current activity: at the maximum concentration tested, 500 μM
# T1 construct: The coding region of the cDNA was subcloned into the EcoRI site of the pBK-CMV vector; expressed in transfected cells; host or cells: HEK293 (human embryonic kidney), transient transfection, pBK-CMV vector
# T1 sequence (D3ZJ25 1-555): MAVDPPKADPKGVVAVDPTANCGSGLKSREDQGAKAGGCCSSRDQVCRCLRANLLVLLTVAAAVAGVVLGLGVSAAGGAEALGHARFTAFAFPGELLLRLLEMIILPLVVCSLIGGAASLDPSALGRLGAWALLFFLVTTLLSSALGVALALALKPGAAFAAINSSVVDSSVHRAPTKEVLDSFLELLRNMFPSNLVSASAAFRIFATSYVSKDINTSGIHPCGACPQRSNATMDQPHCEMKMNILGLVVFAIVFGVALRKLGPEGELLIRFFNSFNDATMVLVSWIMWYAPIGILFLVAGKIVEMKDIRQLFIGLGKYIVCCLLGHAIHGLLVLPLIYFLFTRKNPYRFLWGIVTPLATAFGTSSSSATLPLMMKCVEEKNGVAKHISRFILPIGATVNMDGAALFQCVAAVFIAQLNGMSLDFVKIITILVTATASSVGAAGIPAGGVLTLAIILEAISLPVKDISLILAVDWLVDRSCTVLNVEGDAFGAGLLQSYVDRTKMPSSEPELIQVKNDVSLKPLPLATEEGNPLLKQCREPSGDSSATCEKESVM
# From the text: (§1) We used transporter-mediated anion current as a measure of transport/inhibition activity […] We have previously shown that anion current is a measure of transport activity, due to the kinetic coupling of transport and anion flux, and this fact is also well established for the homologous glutamate transporters, which have a much more rigorously determined pharmacology. Anion current is activated when the transporter visits certain states in the transport cycle, such as the fully Na^+/substrate occupied state (substrate-induced anion conductance), or the Na^+-bound state (leak conductance). Thus, transported substrates induce anion current and non-transported inhibitors block the leak anion current. […] Functional characterization by patch clamping is a powerful approach when combined with virtual screening that prioritizes molecules from large libraries, but precludes screening of large amounts of compounds due to its labor-intensive nature.
# cDNA coding for rat ASCT2 was kindly provided by S. Bröer. The coding region of the cDNA was subcloned into the EcoRI site of the pBK-CMV vector (Stratagene). The cDNA construct was used to transiently transfect human embryonic kidney cells (HEK293, ATCC No. CGL 1573) with leptrime reagent (Polyplus, Ilkrich, France). Transfection was performed as detailed in the supplier’s instructions. Electrophysiological recordings were performed 24–48 h after transfection.
# ASCT2-associated whole-cell currents were recorded with an Adams & List EPC7 amplifier (HEKA, Lambrecht, Germany) using voltage-clamp conditions. Open-tip electrode resistances were 2–3 MΩ and the series resistance (R S) was 5–8 MΩ. R S was not compensated in the recordings, as compensation had no effect on the magnitude of the observed currents. The extracellular bath solution contained (in mM): 140 NaMES, 2 MgGluconate2, 2 CaGluconate2, and 10 HEPES (MES = methanesulfonic acid, pH 7.4 / NaOH). The pipette solution contained (in mM): 130 NaSCN, 2 MgCl2, 10 EGTA, 10 HEPES, and 10 L-alanine/cysteine (pH 7.3 / NaOH). Using this intracellular solution, the transporters operate in the Na^+/alanine exchange mode. Here, external alanine is exchanged with internal alanine in the absence of net transport. The exchange mode is associated with the activation of an uncoupled anion current, which was used as an indirect measure of transport activity. The currents were low pass filtered at 3 kHz (EPC7 built-in filter) and digitized with a digitizer board (Digidata 1200, Axon Instruments, Foster City, CA, USA) at a sampling rate of 10–50 kHz (controlled by software, Axon PClamp7). All experiments were performed at room temperature. Rapid solution exchange was essentially performed as described previously. Briefly, substrates and inhibitors were applied to the ASCT2-expressing HEK293 cells with a quartz tube (350 μm tube diameter) positioned at a distance of ≈0.5 mm to the cell. The linear flow rate of the solutions emerging from the opening of the tube was approximately 5–10 cm/s.
# ASCT2 = target: T2, ASCT2 (Rattus norvegicus, UniProt D3ZJ25); test: Voltage-jump exchange-mediated transient transport current in ASCT2-expressing cells; type: cell-based; conditions: benzylserine 5 mM (S2 Fig)
# T2 construct: expressed in transfected cells
# T2 sequence (D3ZJ25 1-555): T1 sequence (D3ZJ25 1-555)
# From the text: as §1
# Supplementary file pcbi.1004477.s002.pdf: S2 Fig Exchange current is mediated by a transported substrate, but not by a non-transported inhibitor. Voltage jumps induce transport-mediated exchange current (due to voltage-dependent re-equilibration of the translocation equilibrium) in the presence of the transported substrate alanine (1 mM, black trace), but not in the presence of the non-transported inhibitor benzylserine (5 mM, red trace). […]
# [1] = target: T3, ASCT2 mediated glutamine uptake in C8161 melanoma cells (Homo sapiens, UniProt Q15758); parameters: method as in PMID 24531984; conditions: cited from earlier work
# T3 construct: C8161 cells (1 × 10^5/well) were incubated with [^3H]-L-glutamine; endogenous in cells; host or cells: C8161 human melanoma cell line
# T3 sequence (Q15758 1-541): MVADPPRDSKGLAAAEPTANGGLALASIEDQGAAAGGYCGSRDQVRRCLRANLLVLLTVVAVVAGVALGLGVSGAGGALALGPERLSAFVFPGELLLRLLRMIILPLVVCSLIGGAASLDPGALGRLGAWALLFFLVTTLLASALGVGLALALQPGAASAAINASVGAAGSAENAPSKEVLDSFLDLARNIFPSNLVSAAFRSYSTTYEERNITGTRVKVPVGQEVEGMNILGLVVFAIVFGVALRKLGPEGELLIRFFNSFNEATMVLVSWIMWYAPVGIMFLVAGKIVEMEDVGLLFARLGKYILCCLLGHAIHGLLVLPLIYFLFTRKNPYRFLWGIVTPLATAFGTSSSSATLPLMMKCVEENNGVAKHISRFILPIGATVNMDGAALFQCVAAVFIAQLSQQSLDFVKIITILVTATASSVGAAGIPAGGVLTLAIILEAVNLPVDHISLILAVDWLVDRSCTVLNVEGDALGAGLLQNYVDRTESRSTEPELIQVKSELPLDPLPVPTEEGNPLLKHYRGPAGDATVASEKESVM
# Solubility in water = type: physicochemical; conditions: required 5% DMSO at concentrations higher than 1 mM
Km (rat ASCT2),"Imax, maximum currents relative to 1 mM alanine (rat ASCT2)",SMILES,Anion current response / ligand character (rat ASCT2),further results
410 ± 20 µM,1,C[C@H](N)C(=O)O [Alanine],,
,,N[C@@H](COCc1ccccc1)C(=O)O [benzylserine],,Exchange-mediated transient transport currents upon voltage jumps (ASCT2): unable to elicit exchange-mediated transient transport currents; IC50 [1]: 5.3 mM
,,O=C(O)C1NCCS1 (stereo not shown) [thiazolidine-2-carboxylate],,Anion current response (rat ASCT2; at concentrations up to 5 mM): did not elicit any significant response
5100 ± 1500 µM,0.45 ± 0.03,"N[C@H](C(=O)O)[C@@H]1CC(Cl)=NO1 [Acivicin, reference compound]",,
1950 ± 900 µM,-0.03 ± 0.01,"N[C@H](C(=O)O)[C@H](O)c1ccc(O)c(O)c1 [L-DOPS, reference compound]",weak inhibitor,"Ki (rat ASCT2; apparent affinity, inhibition of leak anion conductance, read-out: Ki): ~2 mM; Inhibition of alanine-induced responses (rat ASCT2; at concentrations up to 5 mM): unable to significantly inhibit alanine-induced responses"
,,O=C(O)C1CC(OCc2ccccc2)CN1 (stereo not shown) [4-hydroxyproline-benzylether],not significantly different from zero,
19 ± 10 µM,1.39 and 1.39 ± 0.1,O=C(O)[C@H]1NCC[C@H]1O [cis-3-hydroxyproline],activated inwardly-directed anion currents,
,,CC(C)(N)C(=O)O [AIB],,Anion current response (rat ASCT2; at concentrations up to 5 mM): did not elicit any significant response
,,Cc1ccc2[nH]c(C(=O)O)c(CN(C)Cc3ncc[nH]3)c2c1 [3-{[(1H-imidazol-2-ylmethyl)(methyl)amino]methyl}-5-methyl-1H-indole-2-carboxylic acid],,Solubility in water (Solubility in water): poorly soluble in water; Anion current activity (rat ASCT2): inactive
,,"O=C(O)[C@@H]1CCCN1 [proline, reference compound]",not an ASCT2 ligand,
1370 ± 680 µM,0.68 ± 0.08,"CC(C)(S)[C@@H](N)C(=O)O [Penicillamine, reference compound]",activated inwardly-directed anion currents,
,,O=C(O)[C@H](Cc1c[nH]c2ccccc12)NCCc1ccccc1 [N-(2-phenylethyl)tryptophan],,Solubility in water (Solubility in water): poorly soluble in water; Anion current activity (rat ASCT2): inactive
